Data published in patent US9700578B2, “Use of nitrite salts for the treatment of cardiovascular conditions” (The United States of America as represented by the …, priority 2003, dated 2017).

Tests used:
[1] = system: forearm circulation; test: Sodium nitrite infusion into the brachial artery, forearm blood flow by venous-occlusion plethysmography; details: 8 μmol/min into brachial artery for 5 minutes
Excerpt: The protocol was approved by the Institutional Review Board of the National Heart, Lung and Blood Institute, and informed consent was obtained from all volunteer subjects. […] An additional 10 subjects returned three-six months later for a second series of experiments with low dose nitrite infusion. […] No volunteer subject was allowed to take any medication (oral contraceptive agents allowed), vitamin supplements, herbal preparations, nutriceuticals or other “alternative therapies” for at least one month prior to study and were not be allowed to take aspirin for one week prior to study.
Brachial artery and antecubital vein catheters were placed into the arm, with the intraarterial catheter connected to a pressure transducer for blood pressure measurements and an infusion pump delivering normal saline at 1 mL/min. After 20 minutes of rest, baseline arterial and venous blood samples were obtained and forearm blood flow measurements were made by strain gauge venous-occlusion plethysmography, as previously reported (Panza et al., Circulation, 87, 1468-74, 1993). A series of 7 blood flow measurements were averaged for each blood flow determination. A series of measurements termed Parts I and II were performed in randomized order to minimize a time effect on the forearm blood flow response during nitrite infusion.
Part I: Following 20 minutes of 0.9% NaCl (saline) solution infusion at 1 mL/min into the brachial artery, arterial and venous blood samples were obtained for the assays described below and forearm blood flow measured. Exercise was performed by repetitive hand-grip at one-third of the predetermined maximum grip strength using a hand-grip dynamometer (Technical Products Co.) (Gladwin et al., Proc Natl Acad Sci USA, 97, 9943-8, 2000; Gladwin et al., Proc Natl Acad Sci USA, 97, 11482-11487, 2000; Cannon et al., J Clin Invest, 108, 279-87, 2001). Each contraction lasted for 10 seconds followed by relaxation for 5 seconds. Following 5 minutes of exercise, forearm blood flow measurements were obtained during relaxation phases of exercise, and arterial and venous samples collected. Following a 20-minute rest period with continued infusion of saline into the brachial artery, repeated baseline blood samples and forearm blood flow measurements were obtained. L-NMMA was then infused at a rate of 1 mL/min (8 μmol/min) into the brachial artery. Following 5 minutes of L-NMMA infusion, forearm blood flow was measured, and arterial and venous blood samples obtained. Forearm exercise was then initiated in that arm during continued L-NMMA infusion. Forearm blood flow was measured and blood samples obtained after 5 minutes of exercise during continued L-NMMA infusion (FIG. 1).
Part II: After a 30 minute rest period with continued infusion of saline, baseline measurements were obtained, the saline infusion was then stopped, and infusion of nitrite (NaNO2 36 μmol/ml in 0.9% saline) at 1 ml/min was started. […] For the final 9 subjects studied, 0.01-0.03 mM sodium bicarbonate was added to the normal saline, so as to titrate pH to 7.0-7.4. The nitrite solution was light protected and nitrite levels and free NO gas in solution measured by reductive chemiluminescence after all experiments (Gladwin et al., J Biol Chem, 21, 21, 2002).

[2] = system: hypoxic-induced pulmonary hypertension; test: Comparison of inhaled nitrite and NO gas during hypoxic-induced pulmonary vasoconstriction: efficacy and duration; format: in vivo, newborn lambs; details: hypoxia
Excerpt: NO gas was introduced into the inspiratory limb of the breathing circuit. The inspired concentration of NO was continuously measured by chemiluminescence (CLD 700 AL, Eco Physics Inc, Ann Arbor, Mich.) in the inspiratory limb of the ventilator loop.
efficacy and duration of effect. This protocol was designed to compare the efficacy of nitrite with the clinical standard, 20 ppm inhaled NO gas. […] A second purpose was to determine the duration of effect of a short nitrite nebulization versus NO gas inhalation on hemodynamic and physiological measurements during prolonged hypoxic-induced pulmonary vasoconstriction. After baseline measurements were performed, the lambs were made hypoxic as described above for 35 minutes. Ten minutes after initiation of hypoxia, a 20-minute period of NO gas inhalation was initiated (20 ppm), with continuation of hypoxia for 5 minutes after cessation of NO gas delivery. Lambs were then allowed to recover for one hour. Again, after baseline measurements were made, a second 90-minute period of hypoxia was initiated.

[3] = system: hepatic ischemia-reperfusion injury; test: Hepatic ischemia-reperfusion (I/R) injury; format: in vivo, mice
Method: Carboxy-PTIO [2-(4-Carboxyphenyl)-4,4,5,5-tetramethylimidazoline-1-oxyl-3-oxide potassium salt], a direct intravascular NO scavenger, was utilized to inhibit NO dependent effects following hepatic I/R injury. Carboxy-PTIO (Alexis Biochemicals) was dissolved in phosphate buffered saline and administered intravenously at a dose of 1 mg/Kg in a volume of 50 μL at 30 minutes prior to hepatic ischemia Zinc(II) Deuteroporphyrin IX-2,4-bisethyleneglycol (ZnDBG) (Alexis Biochemicals), a heme oxygenase-1 inhibitor was injected i.p. at a dose of 10 mg/Kg in a volume of 50 μL at 30 minutes prior to the induction of hepatic ischemia.
All of the mice utilized in the present studies were C57BL6/J at 8-10 weeks of age obtained from the Jackson Laboratories (Bar Harbor, Me.). In additional experiments of hepatic I/R injury we utilized mice completely deficient (−/−) in endothelial nitric oxide synthase (eNOS). eNOS−/− mice were originally generously donated from Dr. Paul Huang (Mass. General Hospital) and generated in our breeding colony at LSU-Health Sciences Center. eNOS−/− mice were utilized at 8-10 weeks of age.
The hepatic I/R protocol is depicted in FIG. 6A and has been described previously (Hines et al., Biochem Biophys Res Commun 284:972-976, 2001; Hines et al., Am J Physiol Gastrointest Liver Physiol 284:G536-545, 2001). Mice were anesthetized with the combination of ketamine (100 mg/kg) and zylazine (8 mg/kg) and a midline laparotomy was performed to expose the liver. Mice were then injected with heparin (100 μg/kg, i.p.) to prevent blood clotting. The left lateral and median lobes of the liver were rendered ischemic by completely clamping the hepatic artery and the portal vein using microaneurysm clamps. This experimental model results in a segmental (70%) hepatic ischemia. This method of partial ischemia prevents mesenteric venous congestion by allowing portal decompression throughout the right and caudate lobes of the liver. The liver was then repositioned in the peritoneal cavity in its original location for 45 minutes. The liver was kept moist using gauze soaked in 0.9% normal saline. In addition, body temperature was maintained at 37° C. using a heat lamp and monitoring body temperature with a rectal temperature probe. Sham surgeries were identical except that hepatic blood flow was not reduced with a microaneurysm clamp. The duration of hepatic ischemia was 45 minutes in all experiments, following which the microaneurysm clamps were removed. The duration of hepatic reperfusion was 5 hours in the studies of serum liver transaminase levels (i.e., AST or ALT) and 24 hours for the studies of liver histopathology (such as hepatocellular infarction).
Serum samples were analyzed for aspartate aminotransferase (AST) and alanine aminotransferase (ALT) using a spectrophotometric method (Sigma Chemical Co., St. Louis, Mo.) (Harada et al., Proc Natl Acad Sci USA 100:739-744, 2003). These enzymes are liver specific and are released from the liver during injury (Hines et al., Biochem Biophys Res Commun 284:972-976, 2001; Hines et al., Am J Physiol Gastrointest Liver Physiol 284:G536-545, 2001). […]

[4] = system: U46619-induced normoxic pulmonary hypertension; format: in vivo; details: 2 μg/kg/min i.v. for 30 minutes; before 24±1
Method: This is a simple, inexpensive, and widely available clinical nebulizer system, though other systems could be used.
Six additional lambs were studied in order to evaluate the effects of nitrite nebulization on normoxic pulmonary hypertension. Stable normoxic pulmonary hypertension was induced by an infusion of a stable endoperoxide analog of thromboxane (U46619-9,11-dideoxy-11α-epoxymethano-prostaglandin F2α, Cayman Chemicals, Ann Arbor, Mich.). The drug was dissolved in saline and was administered at a rate of 2 μg/kg/min into the femoral venous catheter for 30 minutes. Nitrite was nebulized for inhalation during the last 20 minutes of the infusion (FIG. 11).

CNC(=N)NCCC[C@H](N)C(=O)O [L-NMMA, L-NG-monomethyl-arginine]
reduction of forearm blood flow [1]: approximately 30%

[N]=O [NO gas, nitric oxide]
loss of the vasodilating effect after termination of delivery ([2]; 20 ppm): in a matter of seconds
reduction (correction) of hypoxic-induced pulmonary hypertension ([2]; NO gas 20 ppm or nitrite aerosol for 20 minutes): about 80%

CC1(C)N([O])C(c2ccc(C(=O)[O-])cc2)=[N+]([O-])C1(C)C.[K+] [PTIO, 2-(4-Carboxyphenyl)-4,4,5,5-tetramethylimidazoline-1-oxyl-3-oxide potassium salt]
effect on nitrite protection (serum AST) ([3]; nitrite 24 μM + PTIO, full factorial design): completely inhibited protective effects of nitrite

CCCCCC(O)/C=C/C1C2CC(CO2)C1C/C=C\CCCC(=O)O (stereo not drawn) [U46619, 9,11-dideoxy-11α-epoxymethano-prostaglandin F2α]
pulmonary artery pressure during infusion [4]: 51±4 mmHg

O=[N+]([O-])[O-].[Na+] [sodium nitrate]
serum elevations of liver transaminases AST and ALT ([3]; intraperitoneal during hepatic ischemia, 45 min ischemia, 5 h reperfusion, nitrite 1.2-480 nmoles, nitrate 48 nmoles): did not exert any protective effects
